One data set deals with β-amyloid (Aβ). In words: Tg2576 mouse model of Alzheimer disease: Aβ and senile plaques. In kind it is in vivo. An excerpt:
For many years, efforts have been focused on the development of inhibitors of β-amyloid (Aβ) formation and its related neurotoxic effects. To determine the effect of diethylaminopropyl acetylsalicylate. HCl on in vivo Aβ accumulation, we administered transdermally diethylaminopropyl acetylsalicylate. […] Three-month-old female transgenic mice overexpressing the human APP gene containing the Swedish mutation that causes familial AD (Tg2576 line) were used for testing the effects of diethylaminopropyl acetylsalicylate.HCl in vivo. 20 Tg2576 mice were divided into 2 groups. […] In group B (n=10), 50 mg/kg of diethylaminopropyl acetylsalicylate.HCl in 0.2 ml of pure water was applied to the back of mouse once per day for 2 months. Then the animals were killed and their brains were removed for analysis. For Aβ analysis, hemibrains were dounce homogenized in 70% formic acid at 150 mg tissue/ml formic acid solution. Homogenates were transferred to a chilled ultracentrifuge and were then spun at 100,000 g for 1 h at 4° C. Supernatants were collected and neutralized with formic acid neutralization buffer (1.0 M Tris base, 0.5 M NaH2PO4, and 0.05% NaN3; 1:20) for Aβ quantitation by ELISA. Aβ40 and Aβ42 were assayed by ELISA. Four individual experiments were performed. To compare across studies, the values for an individual study were normalized using the values obtained for the control animals included in each study. Values represent the mean±SE for the n number shown, after normalizing.

Data set [1] has as its system rats. In words: Spinal cord injury, recovery from paralysis. In kind it is in vivo, rat. The note with it: 5 mg in 0.2 ml water on the area of injury twice per day for 1 months. As to the method:
A group of rat was anesthetized with chloral hydrate, the spinal cord of rats was hit to induce spinal cord injury. At the next day, 20 completely paralyzed rats were divided into 2 groups. […] In group B (n=10), 5 mg of diethylaminopropyl acetylsalicylate.HCl in 0.2 ml of pure water was applied to the area of injury (˜2×3 cm^2) twice per day for 1 months. After the treatment, all rats (10/10) in control group (group A) were still completely paralyzed. We were excited to see that all rats (10/10) in the diethylaminopropyl acetylsalicylate.HCl treated group (group B) could walk. 4 Rats of them were completely normal and other 6 rats walked more slowly and less confidently than their injury. This therapeutic approach can treat spinal cord injury in humans and animals.

The subject of another data set is Tg2576 mouse. In words: Tg2576 mice: radial-arm water-maze test of working memory. The note with it: 50 mg/kg, 2 months. The data set is classed as in vivo. As to the method:
To determine if the transdermal administration of diethylaminopropyl acetylsalicylate.HCl has beneficial functional consequences, we tested 2 months of diethylaminopropyl acetylsalicylate.HCl (50 mg/kg) in the transgenic model for Alzheimer's disease in which mice develop learning deficits as amyloid accumulates. […] In the diethylaminopropyl acetylsalicylate.HCl (50 mg/kg) treated group, all mice performed superbly on the radial-arm water-maze test of working memory and untreated transgenic mice show memory deficits. […] This therapeutic approach can thus prevent and treat Alzheimer's dementia.

Another data set concerns sun damaged skin. Put plainly: Treatment of sun damaged skin of subjects. The data set is classed as in vivo. The note with it: applied to sun damaged skin. An excerpt: Diethylaminoethyl acetylsalicylate.AcOH is applied to subjects' the sun damaged skin. […] 92% of the subjects treated experienced improved elasticity and firmness, and 95% experienced overall improvement in texture and tone. The results shown that HPPs of aspirin and related compounds may be used to treat skin conditions.

A further data set relates to human skin tissue. The note with it: pH 7.4.
Another data set deals with mice. In words: Analgesic activity, acetic acid writhing. The note with it: 30 min before acetic acid. The data set is classed as in vivo. As to the method:
The prodrug compounds are administered either transdermally or orally. The parent compounds are administered orally. The number of writhing that occurred when mice are administered the acetic acid solution are counted, and the rate of inhibition based on the control group which was not pretreated with any test compounds is calculated. […] The A group is the control group.
(In writhing tests, fewer writhes than in controls are read as antinociception.)

A further data set has as its system rat. The note with it: rats.
The test system of data set [2] is rats. Put plainly: Antipyretic activity, E. coli suspension as pyrogen. The note with it: in °C (unit assumed). In kind it is in vivo. As to the method:
Rats are administered with sterilized E. coli suspension as a pyrogen. Each group of rats are administered with a prodrug compounds or parent compounds at a dosage specified below. The prodrug compounds are administered either orally or transdermally. The parent compounds are administered orally.

The nature of data set [3]: Plasma levels after transdermal administration to hairless mice. The data set is classed as in vivo. The note with it: mouse, in vivo. How it is done: Tested compounds (20% solution or suspension in 1 mL isopropanol) are administered transdermally to the skin of intact hairless mice. The plasma levels of the parent compounds are determined by HPLC.
The conditions of data set [4]: pH 7.
Data set [5] relates to spontaneously hypertensive and stroke prone rats (SLAC/SHRSP). Put plainly: Alleviation of the effects of strokes (treatment from 24 hours after operation). The data set is classed as in vivo, rat. The note with it: 50 mg/kg twice per day on the back from 24 hours after the operation. As to the method: (§1) Thrombosis was induced by electrical stimulation (1 mA for 3 minutes) of the carotid artery in spontaneously hypertensive and stroke prone rats (SLAC/SHRSP) by using a thrombosis formation instrument (YLS-14A, Shandong Academy of Medical Sciences, Shandong, China). The rats (Spragu Dawley, 25 weeks old, 380-450 g) were divided into 3 groups randomly, group A is the control group, groups B and C are aspirinamine-treated group. In group B, 100 mg/kg of aspirinamine citric acid salt (10% in water) was applied to the rats' back skin (˜5 cm^2, fur was cut off) 2 hour before the operation and 1 hour after the operation, then 50 mg/kg of the drug was applied to the back of rats twice per day. In group C, 50 mg/kg of aspirinamine was applied to the back of rats twice per day starting from 24 hours after the operation. The recovery of motor functions of rats was evaluated every day. The operation process is outlined in the Method section in the supporting online materials. […] The HPP of aspirin is the first drug which can reverses paralysis from post-stroke.

Data set [6] concerns C57/BL6 mice, MPTP. Put plainly: MPTP Parkinson's disease mice: DA, NA, 5-HT in the striatum. In kind it is in vivo, mouse. An excerpt:
(§2) The mice were divided into 2 groups.

For data set [7], the system named is spontaneously hypertensive and stroke prone rats (SLAC/SHRSP). Put plainly: Anti-stroke activity, carotid thrombosis by electrical stimulation (treated before operation). In kind it is in vivo, rat. The note with it: 100 mg/kg transdermally 2 hour before and 1 hour after operation, then 50 mg/kg twice per day. As to the method: as §1
Data set [8] has as its system C57/BL6 mice, MPTP. In words: MPTP Parkinson's disease mice: GABA and Glu in substantia nigra and striatum.
Description: Group A mice were i.p. injected 0.4% sodium carboxymethylcellulos (15 ml/kg per day) for 7 days. Group B and C mice were i.p. injected N-methyl-4-phenyl-1,2,3,6-tetrahydropyridine (MPTP, 30 mg/kg per day) for 7 days. The mice were divided into 2 groups. […] All mice were killed after the last treatment and the brain tissues were quickly frozen at −80° C. […] The contents of GABA and Glu in the striatum and SN were shown by high performance amino acid auto-analyser.
Data set [9] concerns C57/BL6 mice, MPTP. Put plainly: MPTP Parkinson's disease mice: GSH and MDA in the substantia nigra. The data set is classed as in vivo, mouse. The note with it: MPTP + 30 mg/kg transdermally 14 days.
Description: as §2

Where [10] appears, read: 50 mg/kg transdermally, 2 months.
Setting [11] is: MPTP mice, 30 mg/kg transdermally to the neck once per day for 14 days.
Setting [12] is: MPTP mice, 30 mg/kg transdermally once per day for 14 days.
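For LD50 of HPP in this document: acute toxicity in rats expressed as LD50, determined for both prodrugs and their parent compounds.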

For `CCN(CC)CCCOC(=O)c1ccccc1OC(C)=O.Cl` [diethylaminopropyl acetylsalicylate.HCl], the “reduction in the number of senile plaques” value with β-amyloid (Aβ) (50 mg/kg transdermally over 2 months) was 70-80%. Further, in the data set with β-amyloid (Aβ) (setting [10]), the “reduction in Aβ42 concentration in the brain” value is recorded as 70% and the “reduction of the amount of Aβ detected in the brains” value was 70%. Also, in the data set on β-amyloid (Aβ) (Tg2576 mice, 50 mg/kg transdermally once per day for 2 months), the Aß42 concentration is 2.3 ± 0.3 pmol/g tissue. In the data set with rats [1], the “rats completely normal after treatment” value is listed as 4 and the “rats that could walk after treatment” value is on record as 10/10. Moreover, the “cognitive performance, radial-arm water-maze test of working memory” value with Tg2576 mouse is “performed as well as nontransgenic mice”.

In the case of `CCN(CC)CCOC(=O)c1ccccc1OC(C)=O` [diethylaminoethyl acetylsalicylate.AcOH], in the data set on sun damaged skin, the reduction in roughness stood at 89%; the “reduction in the appearance of fine lines and wrinkles” value is recorded as 85%; the “reduction in the look of freckles, moles, dark spots, and other discolorations” value is 85%; the reduction of acne is reported as 97%. In the data set with sun damaged skin, the “subjects that experienced overall improvement in texture and tone” value was determined as 95%; the “subjects treated that experienced improved elasticity and firmness” value was found to be 92%. Moreover, the “In vitro penetration rate (apparent flux), prodrug compounds” value with human skin tissue turned out to be 1000 μg/cm^2/h. In addition, in the data set on mice (50 mg/kg orally), the “% (rate of writhing inhibition)” value is 54% and the “No. of Writhing” value was 15.4. In addition, in the data set with mice (50 mg/kg transdermally), the “% (rate of writhing inhibition)” value is given as 56% and the “No. of Writhing” value was 14.5. In the data set on mice (100 mg/kg orally), the “% (rate of writhing inhibition)” value turned out to be 67% and the “No. of Writhing” value is 11.0. Moreover, in the data set on mice (100 mg/kg transdermally), the “% (rate of writhing inhibition)” value is 70% and the “No. of Writhing” value worked out at 10.1. The “LD50 of HPP” value in the data set on rat was determined as 2300 mg/kg. Also, in the data set on rats [2] (100 mg/kg orally), the “body temperature, t = 0 min” value was 37.25 ± 0.09; the “body temperature, t = 90 min” value worked out at 36.40 ± 0.15; the “body temperature, t = 180 min” value was 36.50 ± 0.09; the “body temperature, t = 270 min” value is 36.40 ± 0.15. Moreover, in the data set on rats [2] (100 mg/kg transdermally), the “body temperature, t = 0 min” value came to 37.19 ± 0.07; the “body temperature, t = 90 min” value is reported as 36.40 ± 0.05; the “body temperature, t = 180 min” value was found to be 36.38 ± 0.05; the “body temperature, t = 270 min” value came out at 36.40 ± 0.15. Also, in the data set on rats [2] (150 mg/kg orally), the “body temperature, t = 0 min” value was 37.18 ± 0.07; the “body temperature, t = 90 min” value is on record as 36.30 ± 0.15; the “body temperature, t = 180 min” value is listed as 36.28 ± 0.07; the “body temperature, t = 270 min” value was determined as 36.20 ± 0.09. For the same compound, in the data set on rats [2] (150 mg/kg transdermally), the “body temperature, t = 0 min” value is recorded as 37.33 ± 0.05; the “body temperature, t = 90 min” value was found to be 36.27 ± 0.15; the “body temperature, t = 180 min” value worked out at 36.26 ± 0.07; the “body temperature, t = 270 min” value is 36.22 ± 0.08. For the same compound, in data set [3], the “Peak plasma concentration of parent compound after prodrug compound” value was found to be 30 mg/L and the “t, time to peak plasma level of parent compound after prodrug compound” value amounted to 20 min. In data set [4], the “Solubility of HPP” value is greater than 300 mg/mL.

For the compound `CCN(CC)CCOC(=O)c1ccccc1OC(C)=O.O=C(O)CC(O)(CC(=O)O)C(=O)O` [diethylaminoethyl acetylsalicylate.citric acid], the “Stroke-free rats (3 hrs)” value in [5] (3 hrs after operation (before treatment start)) is reported as 0/10. Also, in [5] (2 day), the “Stroke-free rats (2 day)” value is listed as 4/10. Further, in [5] (3 days), the “Weight Loss (3 days)” value is given as −13 +/− 7%. Also, in data set [5] (7 day), the “Stroke-free rats (7 day)” value is on record as 9/10. In [5] (7 days), the “Weight Loss (7 days)” value was −7 +/− 4%. In [5] (14 days), the “Stroke-free rats (14 days)” value is on record as 10/10 and the “Weight Loss (14 days)” value is −4 +/− 2%. Also, in the data set on C57/BL6 mice, MPTP [6] (30 mg/kg transdermally, vs MPTP model group, P<0.05), the “DA, NA, and 5-HT contents in the striatum” value is listed as “increased”. For the same compound, in the data set on C57/BL6 mice, MPTP [6] (setting [11]), the “5-HT concentration in the striatum” value is 302 ± 29, the “DA concentration in the striatum” value turned out to be 817 ± 89 μg/g wet tissue and the “NA concentration in the striatum” value came out at 602 ± 55. Moreover, in data set [7], the “Stroke-free rats (2 hours)” value is 8/10, the “Stroke-free rats (1 day)” value is recorded as 9/10 and the “Stroke-free rats (7 days)” value is 10/10. Also, the “MPTP-induced changes of GABA in striatum and SN” value with C57/BL6 mice, MPTP [8] (30 mg/kg) was “reversed”. In addition, in the data set with C57/BL6 mice, MPTP [8] (setting [12]), the “GABA concentration, Striatum” value is on record as 4.9 ± 1.6 μmol/g wet tissue; the “GABA concentration, Substantia nigra” value came to 4.7 ± 0.5 μmol/g wet tissue; the “Glu concentration, Striatum” value was found to be 26.5 ± 2.7; the “Glu concentration, Substantia nigra” value is listed as 29.5 ± 2.4. For the same compound, the “MDA in the substantia nigra” value in the data set on C57/BL6 mice, MPTP [9] (control 13 ± 3, MPTP + water 21 ± 4) stood at 14 ± 4 μmol/g protein. In addition, the “GSH in the substantia nigra” value with C57/BL6 mice, MPTP [9] (control 152 ± 12, MPTP + water 101 ± 17) worked out at 143 ± 13 μg/g protein.

For the origin of these results see patent publication US20210353579A1, “HIGH PENETRATION COMPOSITIONS AND USES THEREOF” (Techfields Pharma Co., Ltd., priority 2006, published 2021).
